# What was measured:
# [1] = system: sigma-1 site compared to the sigma-2 site; details: (+) isomers of benzomorphan opiates; cited from earlier work
# [2] = system: NMDA-induced toxicity and seizures; details: in vivo models; cited from earlier work
# [3] = system: SHR (spontaneous hypertensive) rats, stroke by MCA occlusion; experiment: Rotating pole or cylinder test after MCA occlusion (Example 1); assay type: in vivo, rat; details: 0.03-10 mg/kg s.c. or p.o. from two days after MCAO for 2-8 weeks; present-tense example
# From the text: Male 3 months old SHR (spontaneous hypertensive) rats are used for induction of stroke by MCA occlusion. This is the preferred strain since most stroke patients are hypertensive. The animals are anesthetized with Methohexital and a small craniectomy is made above the zygmotic arch to expose the middle cerebral artery, which is occluded with a 10-0 monofilament nylon thread distal to the origin of the striatal branches. The rats are not intubated and no catheters are inserted. Following MCA occlusion a large and reproducible infarct is obtained, leading to a robust sensorimotor deficit. The animals are kept on a 6 hr light/18 h dark cycle with free access to food and water. At two days after the MCAO the rats are treated with the compound I, II, III, IV, V, VI, VII, VIII, or IX (0.03-10 mg/kg) s.c. or p.o. and a control group is given saline for 2-8 weeks. At 2, 4, 6 and 8 weeks animals are tested in the rotating pole or cylinder test
# (§1) The cylinder test (modified from Schallert and Tillerson (Innovative models of CNS disease: from molecule to therapy. Clifton, N.J., Humana, 1999) is used to quantify the forelimb use for rearing on the cylinder wall. The rats are monitored as they move freely in a 20-cm-wide clear glass cylinder. Contacts made by each forepaw with the cylinder wall while rearing are scored by a blinded observer. A total of 20 contacts are recorded for each animal, and the number of impaired (left), both, and non-impaired forelimb contacts as percentage of total contacts is calculated. Baseline for rats is achieved by measuring the contacts made by each forepaw before MCAO.
# [4] = hydrohalide salts, in particular the hydrochloride salt; cited from earlier work
# ischemia in gerbils = details: cited from earlier work
# [5] = system: rat primary neuronal cultures; details: cited from earlier work
# [6] = system: spontaneously hypertensive rats exposed to permanent middle artery occlusion (MCAO); experiment: Rotating pole test after permanent MCAO (Example 2); assay type: in vivo, rat; details: rotating pole score 0-6
# From the text: A score of 6-0 is given for each direction:
# 6, the animal crosses the pole with no foot slips;
# 5, the animal crosses the pole with a few foot slips;
# 4, the animal crosses the pole, slipping 50% of the footsteps;
# 3, the animal crosses the pole with more than 50% foot slips;
# 2, the animal walks a bit and then rotates around the pole;
# 1, the animal rotates around the pole without crossing it;
# 0, the animal falls off the pole.
# Thirty five spontaneously hypertensive rats were exposed to permanent middle artery occlusion (MCAO), then divided into three treatment groups. Starting at two days after occlusion and continuing daily until 28 days after occlusion, SA4503 was administered s.c. in doses of 0.3 mg/kg (12 rats) or 1.0 mg/kg (12 rats). In a control group (11 rats), vehicle only was administered. At the start of treatment, and at several time points during the test, the rats were assessed for their performance in the rotating pole model. This model is described in Example 1. It requires the rats to cross a horizontally suspended rotating pole having a length of 1 m. This task measures the sensory-motor performance of the animals. The animals' behaviour was recorded using a video camera and later analyzed and scored by a trained technician. The scoring ranges from 0 to 6, with 0 being very poor performance and 6 reflecting the performance of a healthy animal (without MCAO).
# [7] = system: cultured rat retinal neurons; details: cited from earlier work
# [8] = system: spontaneously hypertensive rats exposed to permanent middle artery occlusion (MCAO); experiment: Cylinder test for asymmetric forelimb use after permanent MCAO (Example 2); assay type: in vivo, rat; details: 0.3 mg/kg; all time points measured
# Protocol: as §1
# Forty three spontaneously hypertensive rats were exposed to permanent middle artery occlusion (MCAO), then divided into three treatment groups. […] At the start of treatment, and at several time points during the test, the rats were assessed for their performance in the cylinder test. […] The performance of the rats in the test was assessed one day before permanent MCAO, then at 14 days, 28 days and 59 days after permanent MCAO. The rats were monitored as they moved freely in a 20 cm-wide clear glass cylinder. Contacts made by each forepaw with the cylinder wall while rearing were scored by a blinded observer. […]
compound,measurement,setting,value
"(+)SKF 10,047",affinity for the sigma-1 site compared to the sigma-2 site,[1],nearly two orders of magnitude higher affinity for the sigma-1 site
CCN(CC)CCOC(=O)C1(c2ccccc2)CCCC1 [caramiphen],protective effects against NMDA-induced toxicity and seizures,[2],consistent with affording protective effects
"O=C(OCCN1CCOCC1)C1(c2ccccc2)CCCCC1 [III, 1-phenylcyclohexane-1-carboxylic acid-2-morpholinoethyl ester]",performance in the rotating pole test or the cylinder test versus control,[3],perform better than the group 1 control animals
O=C(CCCN1CCC(O)(c2ccc(Cl)cc2)CC1)c1ccc(F)cc1 [haloperidol],protective effects against NMDA-induced toxicity and seizures,[2],consistent with affording protective effects
"O=C(NC1CCN(Cc2ccccc2)CC1)c1ccc(I)cc1 [II, N-(N-benzylpiperidin-4-yl)-4-iodobenzaminde]",performance in the rotating pole test or the cylinder test versus control,[3],perform better than the group 1 control animals
OC(CCCN1CCN(c2ncc(F)cn2)CC1)c1ccc(F)cc1 (stereo not shown) [BMY-14802],protective effects against NMDA-induced toxicity and seizures,[2],consistent with affording protective effects
"Fc1ccc(-n2cc(CCCCN3CCC4(CC3)OCc3ccccc34)c3ccccc32)cc1 [siramesine, 1′-[4-[1-(4-fluorophenyl)-1H-indol-3-yl]-1-butyl] spiro [isobenzofuran-1(3H),4′-piperidine]]",performance in the rotating pole test or the cylinder test versus control,[3],perform better than the group 1 control animals
same,bioavailability,[4],good bioavailability
"CN(CCc1ccc(Cl)c(Cl)c1)[C@H]1CCCC[C@H]1N1CCCC1 [VIII, (−)-(1S, 2R)-N-[2-(3,4-dichlorophenyl)ethyl]-N-methyl-2-(pyrrolidin-1-yl) cyclohexylamine]",performance in the rotating pole test or the cylinder test versus control,[3],perform better than the group 1 control animals
"CC(C)=CCN1CCC2(C)c3cc(O)ccc3CC1C2C (single isomer, unassigned; (+)) [(+)pentazocine]",affinity for the sigma-1 site compared to the sigma-2 site,[1],nearly two orders of magnitude higher affinity for the sigma-1 site
"CCC(C/C=C/c1ccccc1)(c1ccccc1)N(C)CC1CC1 (single isomer, unassigned; (+)) [VI, (+)-N-(cyclopropylmethyl)-N-[1-ethyl-1,4-diphenyl-3(E)-butenyl]-N-methylamine]",performance in the rotating pole test or the cylinder test versus control,[3],perform better than the group 1 control animals
"COCCCC/C(=N\OCCN)c1ccc(C(F)(F)F)cc1 [fluvoxamine, 5-methoxy-4′-(trifluoromethyl)valerophenone O-(2-aminoethyl)oxime]",performance in the rotating pole test or the cylinder test versus control,[3],perform better than the group 1 control animals
"COc1ccc(CN2CCN(Cc3ccccc3)CC2)c(O)c1OC [IX, N-benzyl-N′-(2-hydroxy-3,4-dimethoxybenzyl)-piperazine]",performance in the rotating pole test or the cylinder test versus control,[3],perform better than the group 1 control animals
OCCN1CCN(CCCN2c3ccccc3C=Cc3ccccc32)CC1 [opipramol],protection against ischemia,ischemia in gerbils,protect against ischemia
"COc1ccc(CCN2CCN(CCCc3ccccc3)CC2)cc1OC [SA4503, 1-(3,4-dimethoxyphenethyl)-4-(3-phenylpropyl) piperazine]",suppression of hypoxia/hypoglycemia-induced neurotoxicity,[5],significantly suppress
same,total average score at day 30,[6]; 0.3 mg/kg s.c.,5.2
same,Average Increase in Score at Day 30 (SEM),[6]; 0.3 mg/kg s.c. daily from day 2 to day 28 after MCAO,3.5 (SEM 0.4) (p < 0.05)
same,Average Increase in Score at Day 30 (SEM),[6]; 1.0 mg/kg s.c. daily from day 2 to day 28 after MCAO,3.67 (SEM 0.48) (p < 0.05)
same,activity against glutamate neurotoxicity,[7],active
same,performance in the rotating pole test or the cylinder test versus control,[3],perform better than the group 1 control animals
same,asymmetry of paw usage,[8],reduced to pre-MCAO levels
"COc1cccc2c1CCC(=O)N2CCCN1CCN(c2cccc(Cl)c2)CC1 [VII, 1-[3-[4-(3-chlorophenyl)piperazin-1-yl]propyl]-5-methoxy-1,2,3,4-tetrahydroquinolin-2-one]",performance in the rotating pole test or the cylinder test versus control,[3],perform better than the group 1 control animals

# From patent publication US20050020483A1, “Sigma ligands for neuronal regeneration and functional recovery” (priority 2003, published 2005)
